Measurements taken from ChEMBL document CHEMBL1614632, “Trend analysis of a database of intravenous pharmacokinetic parameters in humans for 670 drug compounds” (Drug Metab Dispos, 2008).

Experiments:
clinical [1] = conditions: human, in vivo, iv, CL
clinical [2] = conditions: human, in vivo, iv, Vdss
[3] = human, in vivo, iv
clinical [4] = conditions: human, in vivo, iv
clinical [5] = conditions: human, in vivo, iv; remark: listed apart in the source
clinical [6] = conditions: human, in vivo, iv, t1/2

| SMILES | clearance (clinical [1]) | Vd (clinical [2]) | t1/2 [3] | MRT (clinical [4]) | fraction unbound (clinical [5]) | half-life (clinical [6]) |
| --- | --- | --- | --- | --- | --- | --- |
| CC1CNc2c(cccc2S(=O)(=O)N[C@@H](CCCNC(=N)N)C(=O)N2CC[C@@H](C)C[C@@H]2C(=O)O)C1 (stereo partly drawn) [ARGATROBAN] | 5 mL/min/kg | 0.17 L/kg | 0.4 h | 0.57 h |  |  |
| COc1cc(NC(C)CCCN)c2ncccc2c1 (stereo not drawn) [PRIMAQUINE] | 5.8 mL/min/kg | 4 L/kg | 7.1 h | 11 h |  |  |
| Clc1cccc(Cl)c1N=C1NCCN1 [CLONIDINE] | 4 mL/min/kg | 3.3 L/kg | 7.6 h | 14 h | 0.56 |  |
| COc1cccc2c1C(=O)c1c(O)c3c(c(O)c1C2=O)C[C@@](O)(C(=O)CO)C[C@@H]3O[C@H]1C[C@H](N)[C@@H](O)[C@H](C)O1 [EPIRUBICIN] | 20 mL/min/kg | 45 L/kg | 36 h | 38 h |  |  |
| COC(=O)CCc1ccc(OCC(O)CNC(C)C)cc1 (stereo not drawn) [ESMOLOL] | 290 mL/min/kg | 1.2 L/kg | 0.15 h | 0.07 h | 0.59 |  |
| N=C(N)c1ccc(OCCCCCOc2ccc(C(=N)N)cc2)cc1 [PENTAMIDINE] | 74 mL/min/kg | 53 L/kg | 25 h | 12 h |  |  |
| CCN(CC)CCCC(C)Nc1ccnc2cc(Cl)ccc12 (stereo not drawn) [CHLOROQUINE] | 4.1 mL/min/kg | 140 L/kg | 570 h | 740 h |  |  |
| COc1cc2c(cc1OC)[C@@H](Cc1cc(OC)c(OC)c(OC)c1)[N+](C)(CCCOC(=O)CC/C=C/CCC(=O)OCCC[N+]1(C)CCc3cc(OC)c(OC)cc3[C@H]1Cc1cc(OC)c(OC)c(OC)c1)CC2 (stereo partly drawn) | 5.2 mL/min/kg | 0.27 L/kg | 0.83 h | 0.87 h | 0.7 |  |
| NCCC(O)(P(=O)(O)O)P(=O)(O)O [PAMIDRONIC ACID] | 2.5 mL/min/kg | 1.8 L/kg | 32 h | 12 h |  |  |
| CC(CN(C)C)CN1c2ccccc2CCc2ccccc21 (stereo not drawn) [TRIMIPRAMINE] | 16 mL/min/kg | 16 L/kg |  | 17 h | 0.051 | 1380 min |
| CN1CCN(CCCCN2C(=O)CN(/N=C/c3ccc(-c4ccc(Cl)cc4)o3)C2=O)CC1 [AZIMILIDE] | 2.4 mL/min/kg | 13 L/kg |  | 100 h | 0.06 | 4740 min |
| C=CC[N+]1([C@H]2C[C@H]3[C@@H]4CC[C@H]5C[C@H](O)[C@@H](N6CCOCC6)C[C@]5(C)[C@H]4CC[C@]3(C)[C@H]2OC(C)=O)CCCC1 [ROCURONIUM] | 3.7 mL/min/kg | 0.21 L/kg |  | 0.95 h | 0.54 | 96 min |
| C[C@@H]([C@@H](O)c1ccc(O)cc1)N1CCC(O)(c2ccccc2)CC1 [TRAXOPRODIL] | 27 mL/min/kg | 4.4 L/kg |  | 2.6 h | 0.63 | 222 min |
| NC[C@H]1O[C@H](O[C@H]2[C@H](O)[C@@H](O[C@H]3O[C@H](CO)[C@@H](O)[C@H](N)[C@H]3O)[C@H](N)C[C@@H]2N)[C@H](N)C[C@@H]1O [TOBRAMYCIN] | 1.6 mL/min/kg | 0.23 L/kg |  | 2.4 h | 1 | 120 min |
| CCCCCc1cc(O)c2c(c1)OC(C)(C)[C@@H]1CCC(C)=C[C@@H]21 [DRONABINOL] | 3.2 mL/min/kg | 8.9 L/kg |  | 46 h | 0.05 | 1980 min |
| COc1cc2c(c(OC)c1OC)-c1ccc(OC)c(=O)cc1[C@@H](NC(C)=O)CC2 [COLCHICINE] | 2.1 mL/min/kg | 6.1 L/kg | 58 h | 49 h |  |  |
| CO[C@@]1(NC(=O)Cc2cccs2)C(=O)N2C(C(=O)O)=C(COC(N)=O)CS[C@@H]21 [CEFOXITIN] | 3.6 mL/min/kg | 0.17 L/kg |  | 0.79 h | 0.73 | 48.6 min |

| SMILES | clearance (clinical [1]) | Vd (clinical [2]) | t1/2 [3] | MRT (clinical [4]) | fraction unbound (clinical [5]) | half-life (clinical [6]) |
| --- | --- | --- | --- | --- | --- | --- |
| NNc1nncc2ccccc12 [HYDRALAZINE] | 85 mL/min/kg | 1.5 L/kg |  | 0.29 h | 0.12 | 57.6 min |
| CC1(C)S[C@@H]2[C@H](NC(=O)C(c3ccccc3)S(=O)(=O)O)C(=O)N2[C@H]1C(=O)O (stereo partly drawn) [SULBENICILLIN] | 1.6 mL/min/kg | 0.15 L/kg |  | 1.6 h | 0.5 | 72 min |
| CCOc1ccc2ccccc2c1C(=O)N[C@@H]1C(=O)N2[C@@H]1SC(C)(C)[C@@H]2C(=O)O [NAFCILLIN] | 3.3 mL/min/kg | 0.22 L/kg |  | 1.1 h | 0.13 | 42 min |
| CN(C)CCCN1c2ccccc2CCc2cc(O)ccc21 [2-HYDROXYIMIPRAMINE] | 9.2 mL/min/kg | 6.6 L/kg |  | 12 h | 0.36 | 600 min |
| CO/N=C(\C(=O)N[C@@H]1C(=O)N2C(C(=O)O)=C(COC(C)=O)CS[C@H]12)c1csc(N)n1 [CEFOTAXIME] | 2.7 mL/min/kg | 0.19 L/kg |  | 1.2 h | 0.6 | 72 min |
| CC(=O)O[C@H]1C[C@]2(C)CC[C@H]3[C@@H]4C[C@H](N5CC[N+](C)(C)CC5)[C@H](OC(C)=O)[C@@]4(C)CC[C@@H]3[C@@]2(C)C[C@@H]1N1CC[N+](C)(C)CC1.[Br-].[Br-] [PIPERCURONIUM] | 3 mL/min/kg | 0.35 L/kg |  | 1.9 h | 0.98 | 114 min |
| CN1CC[C@H](c2c(O)cc(O)c3c(=O)cc(-c4ccccc4Cl)oc23)[C@H](O)C1 [ALVOCIDIB] | 6.1 mL/min/kg | 1.5 L/kg |  | 4 h | 0.06 | 312 min |
| CCCC(C)(COC(N)=O)COC(N)=O [MEPROBAMATE] | 0.6 mL/min/kg | 0.7 L/kg |  | 19 h | 1 | 840 min |
| CCC(=O)OCC(=O)[C@@]1(OC(=O)CC)[C@@H](C)C[C@H]2[C@@H]3CCC4=CC(=O)C=C[C@]4(C)[C@@]3(Cl)[C@@H](O)C[C@@]21C [BECLOMETHASONE DIPROPIONATE] | 36 mL/min/kg | 0.29 L/kg |  | 0.1 h | 0.13 | 30 min |
| Cc1cn([C@H]2C=C[C@@H](CO)O2)c(=O)[nH]c1=O [STAVUDINE] | 8.2 mL/min/kg | 0.67 L/kg |  | 1.4 h | 1 | 84 min |
| CC[C@@]1(O)C(=O)OCc2c1cc1n(c2=O)Cc2cc3c(N)cccc3nc2-1 [9-AMINOCAMPTOTHECIN] | 6.5 mL/min/kg | 2.2 L/kg |  | 5.6 h | 0.003 | 420 min |
| COc1cc([C@@H]2c3cc4c(cc3[C@@H](O[C@@H]3O[C@@H]5CO[C@@H](c6cccs6)O[C@H]5[C@H](O)[C@H]3O)[C@H]3COC(=O)[C@H]23)OCO4)cc(OC)c1O [TENIPOSIDE] | 0.19 mL/min/kg | 0.41 L/kg |  | 37 h | 0.0044 | 960 min |
| Nc1cc(-c2ccncc2)c[nH]c1=O [INAMRINONE] | 8.9 mL/min/kg | 1.3 L/kg |  | 2.4 h | 0.89 | 120 min |
| COc1cc(CC2c3c(cc(OC)c(OC)c3OC)CC[N+]2(C)CCCOC(=O)CCC(=O)OCCC[N+]2(C)CCc3cc(OC)c(OC)c(OC)c3C2Cc2cc(OC)c(OC)c(OC)c2)cc(OC)c1OC (stereo not drawn) [DOXACURIUM] | 2.7 mL/min/kg | 0.22 L/kg |  | 1.4 h | 0.53 | 102 min |
| C[C@@H]1CC(=O)NN=C1c1ccc(NN=C(C#N)C#N)cc1 [LEVOSIMENDAN] | 3.8 mL/min/kg | 0.24 L/kg |  | 1.1 h | 0.02 | 66 min |
| Cc1cccc(C)c1OCC(C)N (stereo not drawn) [MEXILETINE] | 8.3 mL/min/kg | 5.9 L/kg |  | 12 h | 0.36 | 594 min |
